Experimental data from patent US20120022107A1, “2-(PIPERIDIN-1-YL)-4-AZOLYL-THIAZOLE-5-CARBOXYLIC ACID DERIVATIVES AGAINST BACTERIAL INFECTIONS” (ASTRAZENECA AB, priority 2008, published 2012).
Values after ≈ are worked out from the molar mass of the structure shown.

How the values were obtained:
Msmeg = Msmeg (Mycolicibacterium smegmatis, UniProt A0QNE0); test: Msmeg IC50; assay type: biochemical
M. tuberculosis = test: MIC testing: Microplate Alamar Blue Assay; assay type: cell-based, Mycobacterium tuberculosis; conditions: lowest concentration preventing color change from blue to pink; for MIC: Mycobacterium tuberculosis, read-out: Mtu MIC
Hinf = Hinf MIC; assay type: cell-based, Haemophilus influenzae; conditions: for MIC: Haemophilus influenzae, read-out: Hinf_MIC
Sau = Sau MIC; assay type: cell-based, Staphylococcus aureus; conditions: for MIC: Staphylococcus aureus, read-out: Sau_MIC
Spn = Spn MIC; assay type: cell-based, Streptococcus pneumoniae; conditions: for MIC: Streptococcus pneumoniae, read-out: Spn_MIC

Sequence of Msmeg (A0QNE0 whole entry): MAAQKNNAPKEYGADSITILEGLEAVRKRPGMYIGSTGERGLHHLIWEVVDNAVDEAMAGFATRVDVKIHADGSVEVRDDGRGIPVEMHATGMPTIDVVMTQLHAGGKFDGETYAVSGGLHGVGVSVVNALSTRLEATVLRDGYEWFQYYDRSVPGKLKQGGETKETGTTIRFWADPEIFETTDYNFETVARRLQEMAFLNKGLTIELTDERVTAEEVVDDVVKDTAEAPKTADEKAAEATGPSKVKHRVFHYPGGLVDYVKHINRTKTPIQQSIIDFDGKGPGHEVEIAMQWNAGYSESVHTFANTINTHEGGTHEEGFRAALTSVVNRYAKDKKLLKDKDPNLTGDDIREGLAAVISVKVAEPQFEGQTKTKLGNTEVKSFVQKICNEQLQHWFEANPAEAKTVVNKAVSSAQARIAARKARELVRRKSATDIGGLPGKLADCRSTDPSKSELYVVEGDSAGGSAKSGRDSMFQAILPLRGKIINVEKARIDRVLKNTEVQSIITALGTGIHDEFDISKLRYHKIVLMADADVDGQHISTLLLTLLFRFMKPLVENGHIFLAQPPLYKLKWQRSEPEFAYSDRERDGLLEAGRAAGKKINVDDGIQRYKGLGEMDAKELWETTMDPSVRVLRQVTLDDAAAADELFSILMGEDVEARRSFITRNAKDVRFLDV

2-((3S,4R)-4-(3-bromo-4-chloro-5-methyl-1H-pyrrole-2- carboxamido)-3-fluoropiperidin-1-yl)-4-(1- (cyclopropylmethyl)-1H-1,2,4-triazol-5-yl) thiazole-5- carboxylic acid [Example 17]
IC50 (Msmeg): 4 nM
Mtu MIC (M. tuberculosis): 0.06 mg/L
Hinf_MIC (Hinf): 0.125 µg/mL
Sau_MIC (Sau): 0.125 µg/mL
Spn_MIC (Spn): 0.125 µg/mL

CO[C@H]1CN(c2nc(-c3ncnn3C)c(C(=O)O)s2)CC[C@H]1NC(=O)c1[nH]c(C)c(Cl)c1Br [Example 1, 2-((3S,4R)-4-{[3-Bromo-4-chloro-5-methyl-1H-pyrrole-2-carbonyl]amino}-3-methoxypiperidin-1-yl)-4-(1-methyl-1H-1,2,4-triazol-5-yl)-1,3-thiazole-5-carboxylic acid]
IC50 (Msmeg): 2.6 nM
MIC (M. tuberculosis): 0.008 mg/L (≈ 0.0143 µM)
MIC (Hinf): 8 mg/L (≈ 14.3 µM)
MIC (Sau): 0.116 mg/L (≈ 0.208 µM)
MIC (Spn): 0.116 mg/L (≈ 0.208 µM)

CO[C@H]1CN(c2nc(-c3ncnn3C)c(C(=O)O)s2)CC[C@H]1NC(=O)c1[nH]c(C)c(Br)c1Cl [Example 2, 2-((3S,4R)-4-{[4-Bromo-3-chloro-5-methyl-1H-pyrrole-2-carbonyl]amino}-3-methoxypiperidin-1-yl)-4-(1-methyl-1H-1,2,4-triazol-5-yl)-1,3-thiazole-5-carboxylic acid]
IC50 (Msmeg): < 4 nM
MIC (M. tuberculosis): < 0.03 mg/L
MIC (Hinf): 2.6 mg/L (≈ 4.65 µM)
MIC (Sau): 0.1 mg/L (≈ 0.179 µM)
MIC (Spn): 0.1 mg/L (≈ 0.179 µM)

CO[C@H]1CN(c2nc(-c3nccn3C)c(C(=O)O)s2)CC[C@H]1NC(=O)c1[nH]c(C)c(Cl)c1Br [Example 3, 2-((3S,4R)-4-{[(3-bromo-4-chloro-5-methyl-1H-pyrrol-2-yl)carbonyl]amino}-3-methoxypiperidin-1-yl)-4-(1-methyl-1H-imidazol-2-yl)-1,3-thiazole-5-carboxylic acid]
IC50 (Msmeg): 6 nM
MIC (M. tuberculosis): 0.125 mg/L (≈ 0.224 µM)
MIC (Hinf): 0.25 mg/L (≈ 0.448 µM)
MIC (Sau): 0.125 mg/L (≈ 0.224 µM)
MIC (Spn): 0.125 mg/L (≈ 0.224 µM)

CO[C@H]1CN(c2nc(-c3ncnn3C)c(C(=O)O)s2)CC[C@H]1NC(=O)c1[nH]c(Cl)c(C)c1Cl [Example 4, 2-((3S,4R)-4-{[(3,5-Dichloro-4-methyl-1H-pyrrol-2-yl)carbonyl]amino}-3-methoxypiperidin-1-yl)-4-(1-methyl-1H-1,2,4-triazol-5-yl)-1,3-thiazole-5-carboxylic acid]
IC50 (Msmeg): 30 nM
MIC (M. tuberculosis): 0.125 mg/L (≈ 0.243 µM)
MIC (Hinf): 4 mg/L (≈ 7.78 µM)
MIC (Sau): 1.26 mg/L (≈ 2.45 µM)
MIC (Spn): 0.1 mg/L (≈ 0.194 µM)

Cc1[nH]c(C(=O)N[C@@H]2CCN(c3nc(-c4ncnn4C)c(C(=O)O)s3)C[C@@H]2F)c(Br)c1Cl [Example 5, 2-((3S,4R)-4-{[(3-Bromo-4-chloro-5-methyl-1H-pyrrol-2-yl)carbonyl]amino}-3-fluoropiperidin-1-yl)-4-(1-methyl-1H-1,2,4-triazol-5-yl)-1,3-thiazole-5-carboxylic acid]
IC50 (Msmeg): < 4 nM
MIC (M. tuberculosis): < 0.06 mg/L
MIC (Hinf): 27.3 mg/L (≈ 50 µM)
MIC (Sau): 0.106 mg/L (≈ 0.194 µM)
MIC (Spn): 0.106 mg/L (≈ 0.194 µM)

Cc1[nH]c(C(=O)N[C@@H]2CCN(c3nc(-c4ncnn4C)c(C(=O)O)s3)C[C@@H]2F)c(Cl)c1Br [Example 6, 2-((3S,4R)-4-{[(4-Bromo-3-chloro-5-methyl-1H-pyrrol-2-yl)carbonyl]amino}-3-fluoropiperidin-1-yl)-4-(1-methyl-1H-1,2,4-triazol-5-yl)-1,3-thiazole-5-carboxylic acid]
IC50 (Msmeg): 5 nM
MIC (M. tuberculosis): 1 mg/L (≈ 1.83 µM)
MIC (Hinf): 0.25 mg/L (≈ 0.457 µM)
MIC (Sau): 0.125 mg/L (≈ 0.229 µM)
MIC (Spn): 0.5 mg/L (≈ 0.914 µM)

COCCn1ccnc1-c1nc(N2CC[C@@H](NC(=O)c3[nH]c(C)c(Cl)c3Br)[C@@H](OC)C2)sc1C(=O)O [Example 7, 2-((3S,4R)-4-{[(3-Bromo-4-chloro-5-methyl-1H-pyrrol-2-yl)carbonyl]amino}-3-methoxypiperidin-1-yl)-4-[1-(2-methoxyethyl)-1H-imidazol-2-yl]-1,3-thiazole-5-carboxylic acid]
IC50 (Msmeg): 4.6 nM
MIC (M. tuberculosis): 1 mg/L (≈ 1.66 µM)
MIC (Hinf): 0.25 mg/L (≈ 0.415 µM)
MIC (Sau): 0.125 mg/L (≈ 0.208 µM)
MIC (Spn): 0.125 mg/L (≈ 0.208 µM)

CO[C@H]1CN(c2nc(-c3ncnn3C)c(C(=O)O)s2)CC[C@H]1NC(=O)c1[nH]c(C)c(C#N)c1Br [Example 8, 2-{(3S,4R)-4-[(3-Bromo-4-cyano-5-methyl-1H-pyrrole-2-carbonyl)-amino]-3-methoxy-piperidin-1-yl}-4-(2-methyl-2H-[1,2,4]triazol-3-yl)-thiazole-5-carboxylic acid]
IC50 (Msmeg): < 0.25 nM
MIC (M. tuberculosis): < 0.03 mg/L
MIC (Hinf): 2 mg/L (≈ 3.64 µM)
MIC (Sau): 0.5 mg/L (≈ 0.91 µM)
MIC (Spn): 0.125 mg/L (≈ 0.228 µM)

CO[C@H]1CN(c2nc(-c3ncnn3C)c(C(=O)O)s2)CC[C@H]1NC(=O)c1[nH]c(C)c(Br)c1C#N [Example 9, 2-{(3S,4R)-4-[(4-Bromo-3-cyano-5-methyl-1H-pyrrole-2-carbonyl)-amino]-3-methoxy-piperidin-1-yl}-4-(2-methyl-2H-[1,2,4]triazol-3-yl)-thiazole-5-carboxylic acid]
IC50 (Msmeg): 10 nM
MIC (M. tuberculosis): 0.015 mg/L (≈ 0.0273 µM)
MIC (Hinf): 0.25 mg/L (≈ 0.455 µM)
MIC (Sau): 0.25 mg/L (≈ 0.455 µM)
MIC (Spn): 0.125 mg/L (≈ 0.228 µM)

CCO[C@H]1CN(c2nc(-c3ncnn3C)c(C(=O)O)s2)CC[C@H]1NC(=O)c1[nH]c(C)c(Cl)c1Br [Example 10]
IC50 (Msmeg): < 2.5 nM
MIC (M. tuberculosis): 0.008 mg/L (≈ 0.014 µM)
MIC (Hinf): 0.125 mg/L (≈ 0.218 µM)
MIC (Sau): 0.125 mg/L (≈ 0.218 µM)
MIC (Spn): 0.125 mg/L (≈ 0.218 µM)

CCO[C@H]1CN(c2nc(-c3ncnn3C)c(C(=O)O)s2)CC[C@H]1NC(=O)c1[nH]c(C)c(Br)c1Cl [Example 11, 2-((3S,4R)-4-(4-bromo-3-chloro-5-methyl-1H-pyrrole-2-carboxamido)-3-ethoxypiperidin-1-yl)-4-(1-methyl-1H-1,2,4-triazol-5-yl) thiazole-5-carboxylic acid]
IC50 (Msmeg): < 2.5 nM
MIC (M. tuberculosis): 0.06 mg/L (≈ 0.105 µM)
MIC (Sau): 0.125 mg/L (≈ 0.218 µM)
MIC (Spn): 0.125 mg/L (≈ 0.218 µM)

Cc1[nH]c(C(=O)N[C@@H]2CCN(c3nc(-c4ncnn4C)c(C(=O)O)s3)C[C@@H]2OCC2CC2)c(Br)c1Cl [Example 12, 2-((3S,4R)-4-(3-bromo-4-chloro-5-methyl-1H-pyrrole-2-carboxamido)-3-(cyclopropylmethoxy)piperidin-1-yl)-4-(1-methyl-1H-1,2,4-triazol-5-yl) thiazole-5-carboxylic acid]
IC50 (Msmeg): 4 nM
MIC (M. tuberculosis): 0.015 mg/L (≈ 0.025 µM)
MIC (Hinf): 0.125 mg/L (≈ 0.209 µM)
MIC (Sau): 0.125 mg/L (≈ 0.209 µM)
MIC (Spn): 0.125 mg/L (≈ 0.209 µM)

CCn1ncnc1-c1nc(N2CC[C@@H](NC(=O)c3[nH]c(C)c(Cl)c3Br)[C@@H](OC)C2)sc1C(=O)O [Example 13, 2-((3S,4R)-4-(3-bromo-4-chloro-5-methyl-1H-pyrrole-2-carboxamido)-3-methoxypiperidin-1-yl)-4-(1-ethyl-1H-1,2,4-triazol-5-yl) thiazole-5-carboxylic acid]
IC50 (Msmeg): < 2.5 nM
MIC (M. tuberculosis): 0.015 mg/L (≈ 0.0262 µM)
MIC (Hinf): 0.125 mg/L (≈ 0.218 µM)
MIC (Sau): 0.125 mg/L (≈ 0.218 µM)
MIC (Spn): 0.125 mg/L (≈ 0.218 µM)

CCn1ncnc1-c1nc(N2CC[C@@H](NC(=O)c3[nH]c(C)c(Br)c3Cl)[C@@H](OC)C2)sc1C(=O)O [Example 14, 2-((3S,4R)-4-(4-bromo-3-chloro-5-methyl-1H-pyrrole-2-carboxamido)-3-methoxypiperidin-1-yl)-4-(1-ethyl-1H-1,2,4-triazol-5-yl) thiazole-5-carboxylic acid]
IC50 (Msmeg): < 2.5 nM
MIC (M. tuberculosis): 0.03 mg/L (≈ 0.0524 µM)
MIC (Hinf): 0.125 mg/L (≈ 0.218 µM)
MIC (Sau): 0.125 mg/L (≈ 0.218 µM)
MIC (Spn): 0.125 mg/L (≈ 0.218 µM)

CCn1ncnc1-c1nc(N2CC[C@@H](NC(=O)c3[nH]c(Cl)c(C)c3Cl)[C@@H](OC)C2)sc1C(=O)O [Example 15, 2-{(3S,4R)-4-[(3,5-Dichloro-4-methyl-1H-pyrrole-2-carbonyl)-amino]-3-methoxy-piperidin-1-yl}-4-(2-ethyl-2H-[1,2,4]triazol-3-yl)-thiazole-5-carboxylic acid]
IC50 (Msmeg): 45 nM
MIC (M. tuberculosis): 0.5 mg/L (≈ 0.946 µM)
MIC (Hinf): 1 mg/L (≈ 1.89 µM)
MIC (Sau): 0.25 mg/L (≈ 0.473 µM)
MIC (Spn): 0.25 mg/L (≈ 0.473 µM)

CO[C@H]1CN(c2nc(-c3ncnn3CC3CC3)c(C(=O)O)s2)CC[C@H]1NC(=O)c1[nH]c(C)c(Cl)c1Br [Example 16, 2-((3S,4R)-4-(3-bromo-4-chloro-5-methyl-1H-pyrrole-2-carboxamido)-3-methoxypiperidin-1-yl)-4-(1-(cyclopropylmethyl)-1H-1,2,4-triazole-5-yl) thiazole-5-carboxylic acid]
IC50 (Msmeg): < 2.5 nM
MIC (M. tuberculosis): 0.03 mg/L (≈ 0.0501 µM)
MIC (Hinf): 0.25 mg/L (≈ 0.417 µM)
MIC (Sau): 8 mg/L (≈ 13.4 µM)
MIC (Spn): 0.25 mg/L (≈ 0.417 µM)

CO[C@H]1CN(c2nc(-c3ncnn3CC3CC3)c(C(=O)O)s2)CC[C@H]1NC(=O)c1[nH]c(C)c(Br)c1Cl [Example 18, 2-((3S,4R)-4-(4-bromo-3-chloro-5-methyl-1H-pyrrole-2-carboxamido)-3-methoxypiperidin-1-yl)-4-(1-(cyclopropylmethyl)-1H-1,2,4-triazol-5-yl) thiazole-5-carboxylic acid]
IC50 (Msmeg): 4 nM
MIC (M. tuberculosis): 0.06 mg/L (≈ 0.1 µM)
MIC (Hinf): 0.5 mg/L (≈ 0.835 µM)
MIC (Sau): 0.125 mg/L (≈ 0.209 µM)
MIC (Spn): 0.25 mg/L (≈ 0.417 µM)

COCCn1ncnc1-c1nc(N2CC[C@@H](NC(=O)c3[nH]c(C)c(Br)c3Cl)[C@@H](OC)C2)sc1C(=O)O [Example 21, 2-((3S,4R)-4-(4-bromo-3-chloro-5-methyl-1H-pyrrole-2-carboxamido)-3-methoxypiperidin-1-yl)-4-(1-(2-methoxyethyl)-1H-1,2,4-triazol-5-yl) thiazole-5-carboxylic acid]
IC50 (Msmeg): < 2.5 nM
MIC (M. tuberculosis): 0.06 mg/L (≈ 0.0995 µM)
MIC (Sau): 0.125 mg/L (≈ 0.207 µM)
MIC (Spn): 0.125 mg/L (≈ 0.207 µM)

COCCn1ncnc1-c1nc(N2CC[C@@H](NC(=O)c3[nH]c(Cl)c(C)c3Cl)[C@@H](OC)C2)sc1C(=O)O [Example 22, 2-((3S,4R)-4-(3,5-dichloro-4-methyl-1H-pyrrole-2-carboxamido)-3-methoxypiperidin-1-yl)-4-(1-(2-methoxyethyl)-1H-1,2,4-triazol-5-yl) thiazole-5-carboxylic acid]
IC50 (Msmeg): 47 nM
MIC (M. tuberculosis): 0.5 mg/L (≈ 0.895 µM)
MIC (Sau): 0.25 mg/L (≈ 0.448 µM)
MIC (Spn): 0.5 mg/L (≈ 0.895 µM)
